A short description of data set [1]: cytotoxicity (minimum toxic concentration) in the infected Vero cell cultures. Format: cell-based, African Green Monkey. To be noted: monkey; minimum concentration of test compound which caused cytotoxicity; Vero cells, highest concentration tested 100 µg/ml; read-out: MTD. The protocol:
(§1) Vero (African Green Monkey Kidney) cells were grown to confluence in 24 well multidishes, each well being 1.6 cm in diameter. The cells were infected with Herpes Simplex type 1 virus (HFEM strain) and overlaid with 0.5 mL of 0.9% agarose (w/v) in maintenance medium in concentrations ranging from 100 to 0.03 µg/ml in half-log dilution steps, were added in 0.5 mL volume. The virus infected cultures were then incubated at 37 °C for 4 days before fixing in 4% formaldehyde solution and staining with carbolfuchsin.

The test system of data set [2] is Herpes Simplex type 1 virus (HFEM strain). The data set can be described thus: plaque reduction assay in Vero cells infected with Herpes Simplex type 1 virus. Format: cell-based. Particulars: Vero cells, HSV-1 HFEM strain, 4 days at 37 C; for EC50: read-out: PDD50 (the source's name). The method, then:
as §1

In data set [3] the test system is Vero (African Green Monkey Kidney) cells. Briefly: cytotoxicity (minimum toxic concentration) in the infected Vero cell cultures. The data set is classed as cell-based. Particulars: vero cells, 96 h. The protocol: as §1
The mark [4] stands for this setting: concentration causing 50% reduction in number of virus plaques.

Where two headings read alike, the source gives them in different places. Some results are limits rather than exact numbers.

On to `O=C(COc1ccccc1)OC[C@H]1O[C@@H](n2cc(/C=C/Br)c(=O)[nH]c2=O)C[C@@H]1OC(=O)COc1ccccc1` [Example 36, 5-(E-2-Bromovinyl)-2'-deoxy-3',5'-di-0-(phenoxyacetyl)-uridine], for which the MCC at 96 h in data set [1] was more than 100 µg/mL. The EC50 in data set [2] (Human alphaherpesvirus 1, 96 h, concentration causing 50% reduction in number of virus plaques) came out at 0.57 µg/mL; in data set [2] (Human alphaherpesvirus 1, 96 h, same PD50 expressed in µM) it was 0.95 µM.

As for “E-5-(2-Bromovinyl)-3'-trimethylsilyl-5'-(4-dipropylsulphamoylbenzoyl- oxyacetyl)-2'-deoxyuridine [Example 14]”, in data set [3], the MTD is reported as more than 100 µg/mL. The PDD50 in data set [2] (setting [4]) was 0.32 µg/mL. Also, the EC50 in data set [2] (same PD50 expressed in µM) is 0.48 µM.

The compound “E-5-(2-Bromovinyl)-5'-(L-2-t-butyldimethylsilyloxy-3-phenylpropionyl)-2'-deoxyuridine [Example 16]” registered an MTD in data set [3] of more than 100 µg/mL. The compound also showed a PDD50 in data set [2] (setting [4]) of 0.63 µg/mL. For the same compound, the EC50 in data set [2] (same PD50 expressed in µM) was found to be 0.68 µM.

(Values after patent publication EP0097039A1, “5-(E-2-halovinyl)-2'-deoxyuridine derivatives, processes for their preparation, pharmaceutical compositions containing them, and their use in treating viral infections” (BEECHAM GROUP PLC, priority 1982, dated 1983).)
